Test results reported in ChEMBL document CHEMBL3885861, “Open TG-GATES”.

Species: Rattus norvegicus
Test: Open TG-GATES - Regimen: Single
Type: toxicity, organism-based, Sprague-Dawley
Parameters: regimen Single, gender Male, age 6 weeks
Settings: in vivo, po, route gavage; for APTT / Bas / Eos / Fbg / Hb / Lym / MCH / MCHC / MCV / Mono / Neu / PT / RBC / Ret / WBC: tissue Blood; for KIDNEY_L / KIDNEY_R / KIDNEY_TOTAL: tissue Kidney; for ALT / AST / CRE / DBIL / IP / K / LDH / Na / RALB / TBIL / TC / TG / TP / gamma-GTP / ALP: tissue Plasma
[1] = 0 mg/kg, 3 h, dose level Control
[2] = 0 mg/kg, 6 h, dose level Control
[3] = 0 mg/kg, 9 h, dose level Control
[4] = 0 mg/kg, 24 h, dose level Control

## Cc1cnc(NC(=O)C2=C(O)c3ccccc3S(=O)(=O)N2C)s1 [MELOXICAM]
[1]
  TERMINAL_BW: 226.2 g
  APTT: 17.9 s
  Bas: 0.4%
  Eos: 1%
  Fbg: 222.8 mg/dL
  Hb: 13.4 g/dL
  Lym: 78.6%
  MCH: 21.2 pg
  MCHC: 34.1%
  MCV: 62.3 fL
  Mono: 2%
  Neu: 17.6%
  PT: 11.8 s
  RBC: 633.2 x10_4/ul
  Ret: 7%
  WBC: 78.8 x10_2/uL
  KIDNEY_L: 1 g
  KIDNEY_R: 1 g
  KIDNEY_TOTAL: 2 g
  ALT: 37.6 IU/L
  AST: 68 IU/L
  CRE: 0.4 mg/dL
  DBIL: 0.06 mg/dL
  IP: 9.3 mg/dL
  K: 3.7 meq/L
  LDH: 149.4 IU/L
  Na: 141.4 meq/L
  RALB: 3.4 g/dL
  TBIL: 0.1 mg/dL
  TC: 79.6 mg/dL
  TG: 61.6 mg/dL
  TP: 5.4 g/dL
  gamma-GTP: 1 IU/L
[2]
  TERMINAL_BW: 224.5 g
  Bas: 0.6%
  Eos: 0.6%
  Fbg: 235.8 mg/dL
  Lym: 75.2%
  MCH: 21.8 pg
  MCHC: 33.8%
  MCV: 64.4 fL
  Mono: 3.2%
  Neu: 19.8%
  PT: 12.6 s
  RBC: 625.4 x10_4/ul
  Ret: 7.3%
  WBC: 110.7 x10_2/uL
  KIDNEY_L: 1 g
  KIDNEY_R: 1 g
  KIDNEY_TOTAL: 2 g
  ALP: 739.4 IU/L
  ALT: 31.4 IU/L
  AST: 61.6 IU/L
  CRE: 0.3 mg/dL
  DBIL: 0.066 mg/dL
  IP: 9.5 mg/dL
  K: 3.9 meq/L
  LDH: 153 IU/L
  Na: 141.4 meq/L
  RALB: 3.3 g/dL
  TBIL: 0.1 mg/dL
  TC: 74.8 mg/dL
  TG: 55.2 mg/dL
  TP: 5.4 g/dL
  gamma-GTP: 0.8 IU/L
[3]
  TERMINAL_BW: 222.3 g
  APTT: 17.6 s
  Bas: 0.2%
  Eos: 1%
  Fbg: 233.2 mg/dL
  Hb: 13.5 g/dL
  Lym: 72.4%
  MCH: 22.1 pg
  MCHC: 34.1%
  MCV: 64.8 fL
  Mono: 3%
  Neu: 22.4%
  PT: 12.6 s
  RBC: 610.8 x10_4/ul
  Ret: 7.2%
  WBC: 88.3 x10_2/uL
  KIDNEY_L: 1 g
  KIDNEY_R: 1 g
  KIDNEY_TOTAL: 2.1 g
  ALP: 910.8 IU/L
  ALT: 29.6 IU/L
  AST: 62.6 IU/L
  CRE: 0.4 mg/dL
  DBIL: 0.068 mg/dL
  IP: 9.5 mg/dL
  K: 4 meq/L
  LDH: 153.2 IU/L
  Na: 141.6 meq/L
  RALB: 3.4 g/dL
  TBIL: 0.1 mg/dL
  TC: 70.6 mg/dL
  TG: 78.8 mg/dL
  TP: 5.5 g/dL
  gamma-GTP: 1.2 IU/L
[4]
  TERMINAL_BW: 238.2 g
  Bas: 0.6%
  Eos: 1.2%
  Fbg: 224.8 mg/dL
  Lym: 78.6%
  MCH: 21.1 pg
  MCHC: 33.9%
  MCV: 62.4 fL
  Mono: 2.6%
  Neu: 16.4%
  PT: 11.7 s
  RBC: 646.8 x10_4/ul
  Ret: 6.4%
  KIDNEY_L: 1 g
  KIDNEY_R: 1 g
  KIDNEY_TOTAL: 2 g
  ALP: 981.2 IU/L
  ALT: 32.6 IU/L
  AST: 62.6 IU/L
  CRE: 0.4 mg/dL
  DBIL: 0.098 mg/dL
  IP: 7.5 mg/dL
  K: 3.9 meq/L
  LDH: 161 IU/L
  Na: 142.4 meq/L
  RALB: 3.4 g/dL
  TBIL: 0.2 mg/dL
  TC: 74.2 mg/dL
  TG: 125.4 mg/dL
  TP: 5.5 g/dL
  gamma-GTP: 1 IU/L
10 mg/kg, 3 h, dose level Low
  TERMINAL_BW: 224.9 g
  Bas: 0.6%
  Eos: 1%
  Fbg: 239 mg/dL
  Hb: 13.3 g/dL
  Lym: 78%
  MCH: 20.8 pg
  MCHC: 33.6%
  MCV: 62 fL
  Mono: 2%
  Neu: 18.2%
  PT: 12.2 s
  RBC: 638.8 x10_4/ul
  Ret: 7.2%
  KIDNEY_L: 1 g
  KIDNEY_R: 1 g
  KIDNEY_TOTAL: 2 g
  ALP: 867.6 IU/L
  ALT: 31.8 IU/L
  AST: 65.8 IU/L
  CRE: 0.3 mg/dL
  DBIL: 0.06 mg/dL
  IP: 9 mg/dL
  K: 4 meq/L
  LDH: 138 IU/L
  Na: 141 meq/L
  RALB: 3.3 g/dL
  TBIL: 0.1 mg/dL
  TC: 73.6 mg/dL
  TG: 62.6 mg/dL
  TP: 5.5 g/dL
  gamma-GTP: 0.8 IU/L
10 mg/kg, 6 h, dose level Low
  TERMINAL_BW: 223 g
  APTT: 17.8 s
  Bas: 0.6%
  Eos: 0.6%
  Fbg: 211.6 mg/dL
  Hb: 13.5 g/dL
  Lym: 77.4%
  MCH: 20.7 pg
  MCHC: 33.6%
  MCV: 61.8 fL
  Mono: 2.6%
  Neu: 18.6%
  RBC: 648.4 x10_4/ul
  Ret: 6.4%
  WBC: 95.9 x10_2/uL
  KIDNEY_L: 1 g
  KIDNEY_R: 1 g
  KIDNEY_TOTAL: 2.1 g
  ALP: 957 IU/L
  ALT: 37.2 IU/L
  AST: 70.6 IU/L
  CRE: 0.3 mg/dL
  DBIL: 0.062 mg/dL
  IP: 9 mg/dL
  K: 3.9 meq/L
  LDH: 163.8 IU/L
  Na: 141 meq/L
  RALB: 3.2 g/dL
  TBIL: 0.1 mg/dL
  TC: 66.8 mg/dL
  TG: 64.4 mg/dL
  TP: 5.2 g/dL
  gamma-GTP: 1 IU/L
10 mg/kg, 9 h, dose level Low
  TERMINAL_BW: 220.5 g
  APTT: 17.8 s
  Bas: 0%
  Eos: 0.8%
  Fbg: 216.6 mg/dL
  Hb: 13.4 g/dL
  Lym: 77.8%
  MCH: 21 pg
  MCHC: 34%
  MCV: 62.1 fL
  Mono: 2.8%
  Neu: 17.8%
  RBC: 637.8 x10_4/ul
  Ret: 6.7%
  KIDNEY_L: 1 g
  KIDNEY_R: 1 g
  KIDNEY_TOTAL: 2.1 g
  ALP: 759.6 IU/L
  ALT: 35 IU/L
  AST: 66 IU/L
  CRE: 0.4 mg/dL
  DBIL: 0.06 mg/dL
  IP: 9.5 mg/dL
  K: 3.9 meq/L
  LDH: 176.6 IU/L
  Na: 141.8 meq/L
  RALB: 3.4 g/dL
  TBIL: 0.1 mg/dL
  TC: 69.4 mg/dL
  TG: 41.6 mg/dL
  TP: 5.3 g/dL
  gamma-GTP: 1 IU/L
10 mg/kg, 24 h, dose level Low
  TERMINAL_BW: 237.5 g
  Bas: 0.2%
  Eos: 0.8%
  Fbg: 214 mg/dL
  Hb: 13.1 g/dL
  Lym: 74.4%
  MCH: 21.8 pg
  MCHC: 33.9%
  MCV: 64.2 fL
  Mono: 3.2%
  Neu: 20.8%
  PT: 11.8 s
  RBC: 601.4 x10_4/ul
  Ret: 7%
  WBC: 133.5 x10_2/uL
  KIDNEY_L: 1.1 g
  KIDNEY_R: 1.1 g
  KIDNEY_TOTAL: 2.2 g
  ALP: 959.4 IU/L
  ALT: 36.8 IU/L
  AST: 70 IU/L
  CRE: 0.4 mg/dL
  DBIL: 0.082 mg/dL
  IP: 7.9 mg/dL
  K: 4.2 meq/L
  LDH: 177.8 IU/L
  Na: 141 meq/L
  RALB: 3.2 g/dL
  TBIL: 0.1 mg/dL
  TC: 72 mg/dL
  TG: 84.4 mg/dL
